According to EP4810061A1, “DEUTERATED CAMPTOTHECIN COMPOUND, AND PREPARATION AND USE THEREOF” (Shanghai Qilu Pharmaceutical Research and Development …, priority 2023, dated 2025):

Key:
[1] = Repeated dose toxicity experiment of payload compounds in rats; type: in vivo, SD rats; details: for Body weight and food consumption: 0.3 mg/kg and 1.0 mg/kg, 7 consecutive days; for animals showed immediate ataxia after administration / rats died during recovery (of the animals with ataxia): tail vein injection for 7 consecutive days; for animals showed immediate ataxia after administration: main experimental group + TK group
Procedure: Test sample preparation: The test sample was weighed according to the predetermined weight into a glass vial. First, 1 mL of DMSO was added and mixed until the test sample was dissolved, followed by the addition of 1 mL of Solutol HS-15. After mixing thoroughly, 8 mL of sodium chloride injection was added and vortex-mixed to obtain a clear and transparent solution.
SD rats (purchased from Beijing Vital River) were used as test animals. […] During the acclimation period, one cage-side observation was conducted daily; during the dosing period, all animals were subjected to clinical observations twice daily (morning and afternoon). Reactions in various aspects, including the skin, fur, eyes (sclera), ears, nose, oral cavity, chest, abdomen, urogenital area, limbs, as well as respiration, movement, urination, defecation (including urine and feces color), and behavioral changes, were recorded. Daily weight data of the main test group animals were documented. For animals scheduled for dissection, terminal body weight (fasted) was measured prior to dissection. The food intake of the test animals was also recorded. Table 6-1. Results of repeated dose toxicity experiments of the payload compounds of the present disclosure in rats
At the end of the administration, gross dissection was performed on D8 after the administration.

[2] = In vitro plasma stability of payload compounds; type: in vitro ADME, CD1 mouse; details: 5 µM, 37°C
Procedure: (§1) 398 µL of plasma was taken and preheated to 37°C, then co-incubated for 15 minutes. 2 µL of the sample solution was added to the plasma to prepare a final sample concentration of 5 µM. The above solution was co-incubated at 37°C, and 50 µL aliquots were taken at 0, 15, 30, 60, and 120 minutes, followed by the addition of 450 µL of ice-cold acetonitrile (containing the internal standard). The solution was vortexed for 10 minutes, centrifuged, and the remaining content of the parent substrate was detected by the LC-MS/MS method. For specific results, refer to Table 4-1. Table 4-1. Plasma stability of the payload compounds of the present disclosure

[3] = In vitro plasma stability of payload compounds; type: in vitro ADME, Human; details: 5 µM, 37°C
Procedure: as §1

Structure (SMILES)	Body weight and food consumption [1]	animals showed immediate ataxia after administration ([1]; 0.3 mpk dose group)	animals showed immediate ataxia after administration ([1]; 1 mpk dose group)	average food consumption ([1]; ♀ rats, at the same dose, versus control (Dxd) group)	Residual content of parent payload at 120 minutes (relative to 0 minutes) CD1 mouse plasma [2] [%]	Residual content of parent payload at 120 minutes (relative to 0 minutes) Human plasma [3] [%]	rats died during recovery (of the animals with ataxia) ([1]; 0.3 mpk dose group) [%]	rats died during recovery (of the animals with ataxia) ([1]; 1 mpk dose group) [%]
[2H]C1([2H])OC(=O)[C@](O)(CC)c2cc3n(c(=O)c21)Cc1c-3nc2cc(F)c(C)c3c2c1[C@@H](NC(=O)CO)CC3 [Compound 2]	At the same dose, the effects of compound 2 and Dxd on rat body weight and food consumption were essentially comparable;	compound 2: 0.3 mpk dose group: 13% (2/16) of animals showed immediate ataxia after administration, followed by gradual recovery;	compound 2: 1 mpk dose group: 25% (4/16) of animals showed immediate ataxia after administration, followed by gradual recovery;	for ♀ rats, at the same dose, the average food consumption of the compound 2 group was higher than that of the control group;	102.54	111.04	–	–
[2H]C1([2H])OC(=O)[C@](O)(CC)c2cc3n(c(=O)c21)Cc1c-3nc2cc(F)c(C)c3c2c1[C@@H](NC(=O)[C@H](O)C1CC1)CC3 [Compound 3]	–	–	–	–	104.97	105.54	–	–
[2H]C1([2H])OC(=O)[C@](O)(CC)c2cc3n(c(=O)c21)Cc1c-3nc2cc(F)c(C)c3c2c1[C@@H](NC(=O)C[C@@H](C)O)CC3 [Compound 5]	–	–	–	–	96.02	107.73	–	–
[2H]C1([2H])OC(=O)[C@](O)(CC)c2cc3n(c(=O)c21)Cc1c-3nc2cc(F)c(C)c3c2c1[C@@H](NC(=O)C[C@H](C)O)CC3 [Compound 6]	–	–	–	–	105.93	94.89	–	–
CC[C@@]1(O)C(=O)OCc2c1cc1n(c2=O)Cc2c-1nc1cc(F)c(C)c3c1c2[C@@H](NC(=O)CO)CC3 [Dxd]	Slow/decreased body weight gain; decreased food consumption;	31%	31%	–	95.42	87.57	40	40
